The results in this text go back to PubChem BioAssay AID248 (DTP/NCI, 2004).

This experiment concerns L1210 leukemia ip in BDF1 mice, survival T/C. Kind of experiment: NCI In Vivo Anticancer Drug Screen. Data for tumor model L1210 Leukemia (intraperitoneal) in B6D2F1 (BDF1) mice. The settings on record: higher = longer survival. Put shortly: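 Mice bearing the transplanted tumor received compound or vehicle. Survival of the treated group was divided by that of the vehicle-treated control group to give the ratio.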

Values joined by “and” are separate entries in the source; they are usually repeats but may differ in a detail not shown here. Equal values may be shown once. Toxic doses and inconclusive results are not listed.

`COc1cccc2c1C(=O)c1c(O)c3c(c(O)c1C2=O)C[C@@](O)(/C(C)=N/NC(=O)c1ccccc1)C[C@@H]3OC1CC(N)C(O)C(C)O1` (some centres undefined): the T/C runs as follows: (endpoint: mean survival time, dose: 0.25 mg/kg/injection, schedule: Q04DX003 (ip), vehicle: water) 110 % of control; (endpoint: mean survival time, dose: 0.5 mg/kg/injection, schedule: Q04DX003 (ip), vehicle: water) 111 % of control; (endpoint: mean survival time, dose: 1.0 mg/kg/injection, schedule: Q04DX003 (ip), vehicle: water) 117 % of control; (endpoint: mean survival time, dose: 4.0 mg/kg/injection, schedule: Q04DX003 (ip), vehicle: water) 124 % of control; (endpoint: mean survival time, dose: 8.0 mg/kg/injection, schedule: Q04DX003 (ip), vehicle: water) 151 % of control; (endpoint: mean survival time, dose: 16.0 mg/kg/injection, schedule: Q04DX003 (ip), vehicle: water) 179 % of control and 205 % of control. Further, the T/C was 120 % of control (endpoint: mean survival time, dose: 24.0 mg/kg/injection, schedule: Q04DX003 (ip), vehicle: water); 94 % of control (endpoint: median survival time, dose: 0.25 mg/kg/injection, schedule: Q01DX009 (ip), vehicle: water); 105 % of control (endpoint: median survival time, dose: 0.25 mg/kg/injection, schedule: Q03HX024 (ip), vehicle: water); 110 % of control (endpoint: median survival time, dose: 0.5 mg/kg/injection, schedule: Q01DX009 (ip), vehicle: water); 110 % of control (endpoint: median survival time, dose: 0.5 mg/kg/injection, schedule: Q03HX024 (ip), vehicle: water); 122 % of control (endpoint: median survival time, dose: 0.78 mg/kg/injection, schedule: Q03HX008 (ip), vehicle: water). The T/C is, setting by setting: (endpoint: median survival time, dose: 0.78 mg/kg/injection, schedule: Q03HX024 (ip), vehicle: water) 111 % of control; (endpoint: median survival time, dose: 1.0 mg/kg/injection, schedule: Q01DX009 (ip), vehicle: water) 115 % of control; (endpoint: median survival time, dose: 1.0 mg/kg/injection, schedule: Q03HX008 (ip), vehicle: water) 115 % of control; (endpoint: median survival time, dose: 1.17 mg/kg/injection, schedule: Q03HX024 (ip), vehicle: water) 100 % of control; (endpoint: median survival time, dose: 1.2 mg/kg/injection, schedule: Q01DX009 (ip), vehicle: water) 105 % of control; (endpoint: median survival time, dose: 1.2 mg/kg/injection, schedule: Q03HX008 (ip), vehicle: water) 105 % of control. For the same compound, the T/C was 105 % of control (endpoint: median survival time, dose: 1.25 mg/kg/injection, schedule: Q04DX003 (ip), vehicle: water); 94 % of control (endpoint: median survival time, dose: 1.75 mg/kg/injection, schedule: Q01DX009 (ip), vehicle: water); 111 % of control (endpoint: median survival time, dose: 1.75 mg/kg/injection, schedule: Q03HX024 (ip), vehicle: water); 110 % of control (endpoint: median survival time, dose: 2.0 mg/kg/injection, schedule: Q01DX009 (ip), vehicle: water); 115 % of control (endpoint: median survival time, dose: 2.5 mg/kg/injection, schedule: Q01DX001 (ip), vehicle: water); 121 % of control (endpoint: median survival time, dose: 2.5 mg/kg/injection, schedule: Q04DX003 (ip), vehicle: water). Moreover, the T/C (endpoint: median survival time, dose: 2.6 mg/kg/injection, schedule: Q01DX009 (ip), vehicle: water) is 122 % of control; the T/C (endpoint: median survival time, dose: 2.6 mg/kg/injection, schedule: Q03HX008 (ip), vehicle: water) was 105 % of control; the T/C (endpoint: median survival time, dose: 2.6 mg/kg/injection, schedule: Q03HX024 (ip), vehicle: water) is 94 % of control; the T/C (endpoint: median survival time, dose: 2.6 mg/kg/injection, schedule: Q04DX003 (ip), vehicle: water) is 111 % of control; the T/C (endpoint: median survival time, dose: 3.9 mg/kg/injection, schedule: Q01DX001 (ip), vehicle: water) was 111 % of control; the T/C (endpoint: median survival time, dose: 3.9 mg/kg/injection, schedule: Q01DX009 (ip), vehicle: water) was 122 % of control. In addition, the T/C was 100 % of control (endpoint: median survival time, dose: 3.9 mg/kg/injection, schedule: Q03HX008 (ip), vehicle: water); 88 % of control (endpoint: median survival time, dose: 3.9 mg/kg/injection, schedule: Q03HX024 (ip), vehicle: water); 111 % of control (endpoint: median survival time, dose: 3.9 mg/kg/injection, schedule: Q04DX003 (ip), vehicle: water); 152 % of control (endpoint: median survival time, dose: 4.0 mg/kg/injection, schedule: Q03HX008 (ip), vehicle: water); 115 % of control (endpoint: median survival time, dose: 5.0 mg/kg/injection, schedule: Q01DX001 (ip), vehicle: water); 105 % of control (endpoint: median survival time, dose: 5.0 mg/kg/injection, schedule: Q04DX003 (ip), vehicle: water). In addition, the T/C by setting is: (endpoint: median survival time, dose: 5.9 mg/kg/injection, schedule: Q01DX001 (ip), vehicle: water) 100 % of control; (endpoint: median survival time, dose: 5.9 mg/kg/injection, schedule: Q04DX003 (ip), vehicle: water) 100 % of control; (endpoint: median survival time, dose: 8.9 mg/kg/injection, schedule: Q01DX001 (ip), vehicle: water) 122 % of control; (endpoint: median survival time, dose: 8.9 mg/kg/injection, schedule: Q01DX009 (ip), vehicle: water) 94 % of control; (endpoint: median survival time, dose: 8.9 mg/kg/injection, schedule: Q04DX003 (ip), vehicle: water) 111 % of control; (endpoint: median survival time, dose: 10.0 mg/kg/injection, schedule: Q01DX001 (ip), vehicle: water) 115 % of control. For the same compound, the T/C was 163 % of control (endpoint: median survival time, dose: 10.0 mg/kg/injection, schedule: Q04DX003 (ip), vehicle: water); 111 % of control (endpoint: median survival time, dose: 13.3 mg/kg/injection, schedule: Q01DX001 (ip), vehicle: water); 105 % of control (endpoint: median survival time, dose: 13.3 mg/kg/injection, schedule: Q04DX003 (ip), vehicle: water); 157 % of control (endpoint: median survival time, dose: 20.0 mg/kg/injection, schedule: Q01DX001 (ip), vehicle: water); 100 % of control (endpoint: median survival time, dose: 20.0 mg/kg/injection, schedule: Q04DX003 (ip), vehicle: water); 89 % of control (endpoint: median survival time, dose: 20.0 mg/kg/injection, schedule: Q08DX002 (ip), vehicle: water).

`CC(C)(C)CC(C)(C)N=Cc1ccccc1`: the T/C runs as follows: (endpoint: mean survival time, dose: 100.0 mg/kg/injection, schedule: Q01DX001 (ip), vehicle: saline) 98 % of control; (endpoint: mean survival time, dose: 200.0 mg/kg/injection, schedule: Q01DX001 (ip), vehicle: saline) 105 % of control; (endpoint: mean survival time, dose: 400.0 mg/kg/injection, schedule: Q01DX001 (ip), vehicle: saline) 88 % of control.

Take `Cc1ncccc1CO`: the T/C is, setting by setting: (endpoint: mean survival time, dose: 100.0 mg/kg/injection, schedule: Q04DX002 (ip), vehicle: gum acacia) 104 % of control; (endpoint: mean survival time, dose: 200.0 mg/kg/injection, schedule: Q04DX002 (ip), vehicle: gum acacia) 90 % of control; (endpoint: mean survival time, dose: 400.0 mg/kg/injection, schedule: Q04DX002 (ip), vehicle: gum acacia) 87 % of control.

As to `C1CCCC2(CCC1)OCCO2`, the T/C reads like this: (endpoint: mean survival time, dose: 100.0 mg/kg/injection, schedule: Q01DX009 (ip), vehicle: saline with Tween-80) 93 % of control; (endpoint: mean survival time, dose: 100.0 mg/kg/injection, schedule: Q04DX003 (ip), vehicle: saline with Tween-80) 113 % of control; (endpoint: mean survival time, dose: 200.0 mg/kg/injection, schedule: Q01DX009 (ip), vehicle: saline with Tween-80) 102 % of control; (endpoint: mean survival time, dose: 200.0 mg/kg/injection, schedule: Q04DX003 (ip), vehicle: saline with Tween-80) 108 % of control; (endpoint: mean survival time, dose: 400.0 mg/kg/injection, schedule: Q01DX009 (ip), vehicle: saline with Tween-80) 101 % of control; (endpoint: mean survival time, dose: 400.0 mg/kg/injection, schedule: Q04DX003 (ip), vehicle: saline with Tween-80) 94 % of control.

`c1cc[c]([Sn]([c]2ccccc2)([c]2ccccc2)[n]2cnc3cncnc32)cc1`: the T/C (endpoint: mean survival time, dose: 5.0 mg/kg/injection, schedule: Q01DX001 (ip), vehicle: other) was 111 % of control and the T/C (endpoint: mean survival time, dose: 10.0 mg/kg/injection, schedule: Q01DX001 (ip), vehicle: other) was 100 % of control.

For `O=C(NCc1ccc(Cl)cc1)Nc1cccc(F)c1`, the T/C was 105 % of control (endpoint: mean survival time, dose: 100.0 mg/kg/injection, schedule: Q01DX009 (ip), vehicle: gum acacia); 86 % of control (endpoint: mean survival time, dose: 200.0 mg/kg/injection, schedule: Q01DX009 (ip), vehicle: gum acacia); 98 % of control (endpoint: mean survival time, dose: 400.0 mg/kg/injection, schedule: Q01DX009 (ip), vehicle: gum acacia).

`O=C(c1ccccc1)C1CCC(Cl)CC1` (centres undefined): the T/C is 96 % of control (endpoint: mean survival time, dose: 100.0 mg/kg/injection, schedule: Q01DX001 (ip), vehicle: other); 101 % of control (endpoint: mean survival time, dose: 200.0 mg/kg/injection, schedule: Q01DX001 (ip), vehicle: other); 102 % of control (endpoint: mean survival time, dose: 400.0 mg/kg/injection, schedule: Q01DX001 (ip), vehicle: other).

`c1ccc([P+](CCC[P+](c2ccccc2)(c2ccccc2)c2ccccc2)(c2ccccc2)c2ccccc2)cc1`: the T/C (endpoint: mean survival time, dose: 2.0 mg/kg/injection, schedule: Q01DX009 (ip), vehicle: saline) was 105 % of control; the T/C (endpoint: mean survival time, dose: 2.0 mg/kg/injection, schedule: Q04DX003 (ip), vehicle: saline) was 106 % of control; the T/C (endpoint: mean survival time, dose: 4.0 mg/kg/injection, schedule: Q01DX009 (ip), vehicle: saline) was 108 % of control; the T/C (endpoint: mean survival time, dose: 4.0 mg/kg/injection, schedule: Q04DX003 (ip), vehicle: saline) was 101 % of control; the T/C (endpoint: mean survival time, dose: 8.0 mg/kg/injection, schedule: Q01DX009 (ip), vehicle: saline) is 107 % of control; the T/C (endpoint: mean survival time, dose: 8.0 mg/kg/injection, schedule: Q04DX003 (ip), vehicle: saline) was 94 % of control and 97 % of control.
